Data taken from patent publication US20220073521A1, “PYRIMIDINE AND FIVE-MEMBERED NITROGEN HETEROCYCLE DERIVATIVE, PREPARATION METHOD THEREFOR, AND MEDICAL USES THEREOF” (Tuojie Biotech (Shanghai) Co., Ltd., priority 2018, published 2022).
Like-named read-outs stand apart in the source and are kept apart here.

How the values were obtained:
[1] = Pharmacokinetics assay in rats; type: in vivo, SD rats; conditions: rat; for AUC: read-out: Area under curve AUC; for half-life: read-out: Half-life T1/2 (converted)
Experimental: Rats were used as test animals. The drug concentration in plasma at different time points was determined by LC/MS/MS method after intravenous administration or intragastrical administration of the compound of the present invention to rats. The pharmacokinetic behavior of the compound of the present invention was studied and evaluated in rats.
The atropisomer with a RT of 1.495 minutes in Examples 3 and 4, compounds of Example 17, Example 41 and Example 43.
Healthy male SD rats (6-8 weeks old), 3 rats per group.
Intravenous administration: A certain amount of the test compound was weighed, to which 10% by volume of N,N-dimethylacetamide, 33% by volume of triethylene glycol and 57% by volume of water were added to prepare a 1 mg/mL colorless, clear and transparent solution;
Intragastrical administration: A certain amount of the test compound was weighed, to which 0.5% by mass of hypromellose, 0.1% by volume of Tween 80 and 99.4% by volume of water were added to prepare a 1 mg/mL white suspension.
After an overnight fast, the SD rats were intravenously administered the test compound at an administration dose of 1 mg/kg, or intragastrically administered the test compound at an administration dose of 5 mg/kg.
(§1) The rats were intravenously administered the compound of the present invention. 0.2 ml of blood was taken from the jugular vein at 0.083, 0.25, 0.5, 1, 2, 4, 8 and 24 hours after the administration. The samples were placed in tubes containing EDTA-K2, and centrifuged at 4000 rpm and 4° C. for 5 minutes to separate the blood plasma. The plasma samples were stored at −75° C.
as §1, with “Or, the rats” for “The rats”, “were intragastrically” for “were intravenously”, “at” for “at 0.083,”
The content of the test compound in the plasma of rat after intragastrical administration of the test compound at different concentrations was determined: 50 μL of rat plasma at each time after administration was taken, to which 200 μL of a solution (50 ng/mL) of internal standard dexamethasone in acetonitrile was added. The plasma was vortex-mixed for 30 seconds, and centrifuged at 4700 rpm and 4° C. for 15 minutes. The supernatant was taken from the plasma samples, and a three-fold dilution was carried out by adding water. 2.0 μL of the supernatant was used for LC/MS/MS analysis.

KYSE-520 cells = test: KYSE-520 cell proliferation experiment (CellTiter-Glo, 7 days); type: cell-based; conditions: Homo sapiens
Experimental: The treated cell plate was incubated at 37° C., 5% CO2 for 7 days. CellTiter-Glo (Promega, G7573) was used to determine the number of viable cells in each well of the treated plate. 100 μL of the detection reagent was added to each well, and the plate was incubated at room temperature for 10 minutes. Then, the […] in each well was measured with Envision plate reader (PerkinElmer). […] The IC50 value was further calculated as the compound concentration required for 50% proliferation inhibition in the best-fit curve with […].

[2] = biological target: T1, SHP2 wild-type phosphatase (recombinantly expressed full-length SHP2, aa 1-593) (Homo sapiens, UniProt Q06124); test: In vitro activity on SHP2 wild-type phosphatase (DiFMUP fluorescence); conditions: wild-type full-length SHP2, activated polypeptide IRS1 0.5 nM, DiFMUP 30 μM;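 further: enzyme preincubated at room temperature, then DiFMUP reaction run at room temperature and halted with SDS, potency derived from a logistic curve fit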
T1 sequence (Q06124 1-593): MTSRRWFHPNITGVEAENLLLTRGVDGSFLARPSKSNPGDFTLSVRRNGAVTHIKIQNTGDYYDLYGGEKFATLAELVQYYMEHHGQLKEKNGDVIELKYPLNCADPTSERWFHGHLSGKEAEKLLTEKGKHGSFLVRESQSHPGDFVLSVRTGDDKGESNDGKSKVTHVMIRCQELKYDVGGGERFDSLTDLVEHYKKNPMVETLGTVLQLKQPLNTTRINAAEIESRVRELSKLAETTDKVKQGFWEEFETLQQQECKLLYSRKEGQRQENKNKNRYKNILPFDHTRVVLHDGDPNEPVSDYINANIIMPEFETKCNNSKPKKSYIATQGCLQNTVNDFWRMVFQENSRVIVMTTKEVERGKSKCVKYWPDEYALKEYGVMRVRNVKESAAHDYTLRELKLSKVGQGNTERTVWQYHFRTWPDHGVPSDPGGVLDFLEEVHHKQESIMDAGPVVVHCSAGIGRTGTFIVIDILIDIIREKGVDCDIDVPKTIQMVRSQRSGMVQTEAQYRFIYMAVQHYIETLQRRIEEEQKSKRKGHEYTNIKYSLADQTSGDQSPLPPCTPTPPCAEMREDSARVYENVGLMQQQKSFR

p-ERK in KYSE-520 cells = test: Determination of p-ERK in KYSE-520 cells (HTRF); type: cell-based
Experimental: KYSE-520 cells (Nanjing Cobioer Biosciences CO., Ltd.) in the logarithmic growth phase were inoculated (30,000 cells/well) in 1640 medium containing 10% of FBS, and adhered in a 96-well plate overnight (5% CO2, 37° C.). […] The cell culture was stopped with cell lysate. The level of phosphorylated ERK in KYSE-520 cells was determined by a method based on homogeneous time-resolved fluorescence HTRF (Cisbio, 64ERKPEG). The fluorescence values (Ex337 nm/Em625/665 nm) were read on the compatible HTRF reader (MD SpectraMax).

hERG potassium channel = biological target: T2, hERG potassium channel (Homo sapiens, UniProt Q12809); test: hERG current inhibition experiment (manual patch clamp, CHO hERG cells); type: cell-based; conditions: whole-cell patch clamp, tail current
T2 construct: host or cells: CHO hERG cells
Experimental: In this experiment, whole-cell current recording was performed using a manual patch clamp system (HEKA EPC-10 signal amplification and digital conversion system, purchased from HEKA Electronic, Germany). The round glass slide of which surface CHO hERG cells (provided by Sophion Bioscience Inc., Denmark, the cell generation number was P21) were grown on was placed in an electrophysiological recording slot under an inverted microscope. The recording slot was continuously perfused with extracellular fluid (approximately 1 mL per minute). Conventional whole-cell patch clamp current recording technique was used in the experiment. The experiments were performed at normal room temperature (˜25° C.). The cells were clamped at a voltage of −80 mV. Cell patch clamp voltage was depolarized to +20 mV to activate hERG potassium channel, and to −50 mV after 5 seconds to eliminate inactivation and generate tail currents. The tail current peak was used as a value of hERG current. When the hERG potassium current recorded in the above steps became steady under continuous perfusion of the extracellular fluid in the recording slot, the drug to be tested could be added to the perfusion, until the inhibition effect of the drug on hERG current reached a steady state. Generally, the overlapping of most recent three consecutive current recording lines was used as a criterion to determine whether the state was stable. After reaching the steady state, the recording slot was perfused with extracellular fluid until the hERG current returned to the value before the drug adding. The test data was analyzed by HEKA Patchmaster (V2x73.2), Microsoft Excel and the data analysis software provided by Graphpad Prism 5.0.

T2 sequence (Q12809 whole entry): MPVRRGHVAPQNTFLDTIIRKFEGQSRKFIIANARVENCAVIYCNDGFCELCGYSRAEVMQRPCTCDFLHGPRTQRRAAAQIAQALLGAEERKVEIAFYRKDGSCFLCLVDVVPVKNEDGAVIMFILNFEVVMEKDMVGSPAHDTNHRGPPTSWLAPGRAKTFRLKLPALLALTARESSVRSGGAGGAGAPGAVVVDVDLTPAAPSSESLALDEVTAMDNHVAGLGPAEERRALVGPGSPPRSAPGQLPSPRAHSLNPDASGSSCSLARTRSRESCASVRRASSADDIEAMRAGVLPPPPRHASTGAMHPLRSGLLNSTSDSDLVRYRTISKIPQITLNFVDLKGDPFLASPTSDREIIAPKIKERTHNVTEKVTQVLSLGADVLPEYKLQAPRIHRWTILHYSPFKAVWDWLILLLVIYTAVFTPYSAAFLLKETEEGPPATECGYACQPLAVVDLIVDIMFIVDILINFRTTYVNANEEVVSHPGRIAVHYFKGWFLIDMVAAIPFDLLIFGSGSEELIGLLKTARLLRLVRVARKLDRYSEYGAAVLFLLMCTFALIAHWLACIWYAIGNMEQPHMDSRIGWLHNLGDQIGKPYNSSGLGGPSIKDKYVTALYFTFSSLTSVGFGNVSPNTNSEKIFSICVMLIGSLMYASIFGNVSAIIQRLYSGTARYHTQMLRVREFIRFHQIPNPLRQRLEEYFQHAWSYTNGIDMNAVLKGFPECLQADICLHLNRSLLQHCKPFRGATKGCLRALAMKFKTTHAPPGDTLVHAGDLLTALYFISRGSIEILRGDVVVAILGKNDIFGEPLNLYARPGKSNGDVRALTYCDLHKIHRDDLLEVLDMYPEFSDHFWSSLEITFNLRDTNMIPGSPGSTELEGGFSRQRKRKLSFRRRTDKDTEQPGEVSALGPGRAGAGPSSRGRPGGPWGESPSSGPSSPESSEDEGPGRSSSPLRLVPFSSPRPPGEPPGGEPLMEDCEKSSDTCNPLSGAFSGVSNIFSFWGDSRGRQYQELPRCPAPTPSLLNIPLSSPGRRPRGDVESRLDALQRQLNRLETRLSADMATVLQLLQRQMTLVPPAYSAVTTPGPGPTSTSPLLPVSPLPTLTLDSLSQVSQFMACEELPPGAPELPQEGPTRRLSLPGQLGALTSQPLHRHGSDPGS

SMILES | IC50 [2] [nM] | IC50 (p-ERK in KYSE-520 cells; Homo sapiens, KYSE-520, 2 h) [nM] | IC50 (KYSE-520 cells) [nM] | further results
Cc1nc(N2CCC3(CC2)CO[C@@H](C)[C@H]3N)n2ccnc2c1-c1cccc(Cl)c1Cl (single isomer, unassigned) [The atropisomer with a RT of 1.495 minutes in Examples 3 and 4] | 0.7 | 39 | 126 | AUC ([1]; male, SD, plasma, IV 1 mg/kg): 3130 ± 300 ng·h/mL; clearance ([1]; male, SD, plasma, IV 1 mg/kg, read-out: Clearance CL_obs): 5.13 ± 0.59 mL/min/kg; half-life ([1]; male, SD, plasma, IV 1 mg/kg): 5.5 ± 0.59 h; bioavailability ([1]; male, SD, plasma, PO 5 mg/kg vs IV 1 mg/kg, read-out: Bioavailability F): 82.6 ± 17.8%; AUC ([1]; male, SD, plasma, PO 5 mg/kg): 12500 ± 2470 ng·h/mL; half-life ([1]; male, SD, plasma, PO 5 mg/kg): 6.18 ± 0.61 h; Cmax ([1]; male, SD, plasma, PO 5 mg/kg, read-out: Maximum plasma concentration Cmax): 1220 ± 220 ng/mL; Apparent distribution volume Vss_obs ([1]; IV 1 mg/kg): 2.03 ± 0.15 L/kg
Cc1nc(N2CCC3(CCC[C@H]3N)CC2)n2ccnc2c1-c1cccc(Cl)c1Cl [Example 1, (R)-8-(8-(2,3-Dichlorophenyl)-7-methylimidazo[1,2-c]pyrimidin-5-yl)-8-azaspiro[4.5]decan-1-amine] | 4.5 | 383 | 723 | IC50 (hERG potassium channel): 2130 nM
Cc1nc(N2CCC3(CC2)CO[C@@H](C)[C@H]3N)n2ccnc2c1-c1cccc(Cl)c1Cl [Example 2, (3S,4S)-8-(8-(2,3-Dichlorophenyl)-7-methylimidazo[1,2-c]pyrimidin-5-yl)-3-methyl-2-oxa-8-azaspiro[4.5]decan-4-amine] | 1.1 | 40.5 | 186 | IC50 (hERG potassium channel): 2610 nM
N[C@@H]1c2ccccc2CC12CCN(c1ncc(Sc3cccnc3C(F)(F)F)c3nccn13)CC2 [Example 31, (S)-1′-(8-((2-(Trifluoromethyl)pyridin-3-yl)thio)imidazo[1,2-c]pyrimidin-5-yl)-1,3-dihydro spiro[indene-2,4′-piperidin]-1-amine] | 3.4 | 6.5 | 52 | 
N[C@@H]1c2cccnc2CC12CCN(c1ncc(Sc3cccnc3C(F)(F)F)c3nccn13)CC2 [Example 34, (S)-1′-(8-((2-(Trifluoromethyl)pyridin-3-yl)thio)imidazo[1,2-c]pyrimidin-5-yl)-5,7-dihydro spiro[cyclopenta[b]pyridine-6,4′-piperidin]-5-amine] | 2.8 | 5.4 | 92.5 | 
CNc1nccc(Sc2cnc(N3CCC4(CC3)Cc3ncccc3[C@H]4N)n3ccnc23)c1F [Example 37, (S)-1′-(8-((3-Fluoro-2-(methylamino)pyridin-4-yl)thio)imidazo[1,2-c]pyrimidin-5-yl)-5,7-dihydrospiro[cyclopenta[b]pyridine-6,4′-piperidin]-5-amine] | 4 | 8.6 | 37 | 

More lines, in order of falling IC50 [2], values ahead:

IC50 [2] [nM] | IC50 (p-ERK in KYSE-520 cells; Homo sapiens, KYSE-520, 2 h) [nM] | SMILES | IC50 (KYSE-520 cells) [nM] | further results
2.6 | 8.6 | Nc1nc(N2CCC3(CC2)Cc2ncccc2[C@H]3N)n2ccnc2c1Sc1cccnc1C(F)(F)F [Example 28, (S)-1′-(7-Amino-8-((2-(trifluoromethyl)pyridin-3-yl)thio)imidazo[1,2-c]pyrimidin-5-yl)-5,7-dihydrospiro[cyclopenta[b]pyridine-6,4′-piperidin]-5-amine] | 21.6 | 
1.7 | 8 | Nc1nccc(Sc2cnc(N3CCC4(CC3)Cc3ncccc3[C@H]4N)n3ccnc23)c1Cl [Example 27, (S)-1′-(8-((2-Amino-3-chloropyridin-4-yl)thio)imidazo[1,2-c]pyrimidin-5-yl)-5,7-dihydrospiro[cyclopenta[b]pyridine-6,4′-piperidin]-5-amine] | 31.5 | 
1.4 | 6.1 | Nc1nc(N2CCC3(CC2)Cc2ccccc2[C@H]3N)n2ccnc2c1Sc1cccnc1C(F)(F)F [Example 30, (S)-1′-(7-Amino-8-((2-(trifluoromethyl)pyridin-3-yl)thio)imidazo[1,2-c]pyrimidin-5-yl)-1,3-dihydrospiro[indene-2,4′-piperidin]-1-amine] | 8.9 | 
1.4 | 6.5 | N[C@@H]1c2cccnc2CC12CCN(c1ncc(Sc3ccnc(N4CCOCC4)c3Cl)c3nccn13)CC2 [Example 40, (S)-1′-(8-((3-Chloro-2-morpholinopyridin-4-yl)thio)imidazo[1,2-c]pyrimidin-5-yl)-5,7-dihydrospiro[cyclopenta[b]pyridine-6,4′-piperidin]-5-amine] | 27.3 | 
1 | 2.7 | Nc1nccc(Sc2cnc(N3CCC4(CC3)Cc3ccccc3[C@H]4N)n3ccnc23)c1Cl [Example 32, (S)-1′-(8-((2-Amino-3-chloropyridin-4-yl)thio)imidazo[1,2-c]pyrimidin-5-yl)-1,3-dihydrospiro[indene-2,4′-piperidin]-1-amine] | 12.9 | 
1 | 7.9 | CC1(O)CN(c2nccc(Sc3cnc(N4CCC5(CC4)Cc4ncccc4[C@H]5N)n4ccnc34)c2Cl)C1 [Example 39, (S)-1-(4-((5-(5-Amino-5,7-dihydrospiro[cyclopenta[b]pyridine-6,4′-piperidin]-1′-yl)imidazo[1,2-c]pyrimidin-8-yl)thio)-3-chloropyridin-2-yl)-3-methylazetidin-3-ol] | 24.1 | IC50 (p-ERK in KYSE-520 cells; 2 hours): 10.3 nM
